This is an account of results in ChEMBL document CHEMBL1156132, “2-Aminopyrazolo[1,5-a]pyrimidines as potent and selective inhibitors of JAK2” (Bioorg Med Chem Lett, 2009).

Common to all, as to conditions: Sprague-Dawley, rat, iv, 1 mg/kg
Data set [1] in a line: in vivo.
Description: Half life in Sprague-Dawley rat at 1 mg/kg, iv
Data set [2] is described as follows: in vivo. This is another data set of the same source.
Description: Clearance in Sprague-Dawley rat at 1 mg/kg, iv
Data set [3] can be described thus: in vivo. This is another data set of the same source.

Broadly, the half-life is how long it takes for the measured level to halve. Read a high half-life as slow loss. What is called clearance is a measure of how efficiently the substance is removed, as volume per time. Read a low clearance as a low capacity for elimination. As a reminder, the Vd is a proportionality between amount in the body and measured concentration, not a real space. A lower Vd goes with little distribution into tissue. Consider `C[C@@H](Nc1cc(-c2c(N)nn3cccnc23)ncn1)c1ccc(F)cc1`, for which the half-life in “in vivo [1]” was 54 min. The clearance in the data set “in vivo [2]” came out at 104 mL/min/kg. The Vd in “in vivo [3]” is 5.1 L/kg.
